Measurements as given in article PMC9148072, “Design, Cytotoxicity and Antiproliferative Activity of 4-Amino-5-methyl-thieno[2,3-d]pyrimidine-6-carboxylates against MFC-7 and MDA-MB-231 Breast Cancer Cell Lines” (Molecules, 2022).
In brackets after ≈: the same amount, converted by molar mass. Like-named read-outs stand apart in the source and are kept apart here. Blank lines part the entries; values can stand above or below the compound they belong to.

How the values were obtained:
[1] = 3T3 Neutral Red Uptake (NRU) cytotoxicity test; assay type: cell-based, mouse; conditions: mouse, BALB/3T3 clone A31 cells; for CC50 at 24 h: BALB 3T3, 24 h, no irradiation, read-out: CC50 of Mean ± SD, Cytotoxicity
[2] = 3T3 NRU phototoxicity test (irradiated); assay type: cell-based, mouse; conditions: mouse, BALB/3T3 clone A31 cells; BALB 3T3, irradiated 2.4 J/cm2, then 24 h; read-out: CC50 of Mean ± SD, Phototoxicity
Text: (§1) Some organic compounds exposed to sunlight can be converted into phototoxins as a result of light-induced changes in energy state or degradation of the molecule. The estimation of phototoxicity can serve as an indicator of the photostability of the studied thienopyrimidines when irradiated with UV light and as evidence that their effect on cells is only due to the cytotoxicity and not to phototoxicity. The compounds were studied for cytotoxicity by the 3T3 Neutral Red […] (NRU) phototoxicity test based on a comparison of the cytotoxicity of a chemical when tested in the presence and absence of noncytotoxic exposure to UVA/vis light. The cells were incubated with the test substances at a variable concentration: for compound 4 from 0.5 to 100 μg/mL, and for all the rest from 15 to 4000 μg/mL for 24 h.
(§2) The light source used was a light emitting diode (LED) matrix, an artificial solar light simulator Helios-iO, model LE-9ND55-H—5500K (SERIC Ltd., Tokyo, Japan).
(§3) BALB/3T3 cells were cultured in 75 cm^2 tissue-culture flasks in DMEM, 10% FBS, 2 mM glutamine and antibiotics (penicillin 100 U/mL and streptomycin 100 µg/mL) at 37 °C, 5% CO2 and 90% relative humidity. Cytotoxicity/phototoxicity was assessed by validated BALB/3T3 clone A31 Neutral Red Uptake Assay (3T3 NRU test). Briefly, cells were plated in a 96-well microtiter plate at a density of 1 × 10^4 cells/100 µL/well and were incubated for 24 h. A wide concentration range of the test compounds was applied. In phototoxicity tests, 96-well plates were irradiated with dose 2.4 J/cm^2 and the cells were incubated for additional 24 h. After treatment with Neutral Red medium, washing and treatment with the Ethanol/Acetic acid solution, the absorption was measured on a TECAN microplate reader (TECAN, Grödig, Austria) at wavelength 540 nm.
(§4) Cytotoxicity/phototoxicity were expressed as CC50/PC50 values (concentrations required for 50% cytotoxicity/phototoxicity), calculated using nonlinear regression analysis (GraphPad Software, Prism 8.0.2 (263), San Diego, CA, USA). The CC50 values can be used to calculate the PIF (photoirritancy factor) for each test substance, according to the following formula:PIF = Cytotoxicity (CC50)/Phototoxicity (PC50)(6)

BALB 3T3 cells = assay: 3T3 NRU phototoxicity test (irradiated); assay type: cell-based, mouse; conditions: CC50/PC50; PIF < 2 not phototoxic, ≥ 2 and < 5 probable phototoxicity, ≥ 5 phototoxic
Text: as §1, §2, §3, §4

MCF-10A cell line = assay: MTT antiproliferative assay, MCF-10A; assay type: cell-based; conditions: Homo sapiens, 72 h
Experimental: (§5) The compounds were studied for antiproliferative activity by standard MTT dye-reduction assay. Cell cultures from MCF-10A, MCF-7 and MDAMB-231 cell lines were incubated for 72 h in the presence of the tested substances in a wide range of concentrations. At the MCF-10A and MDA-MB-231 cell lines, compound 4 was applied in the range from 0.5 to 100 µg/mL, and all others from 4 to 1000 µg/mL.
In order to determine antitumor activity, as a reliable model and a control we used the MCF-10A cell line (normal human mammary epithelial cells).
(§6) All breast cell lines (MCF-10A, MCF-7 and MDA-MB-231) were purchased from the American Type Culture Collection—ATCC (Manassas, VA, USA). The MCF-7 and MDA-MB-231 were cultivated in Dulbecco’s Modified Eagle’s Medium (DMEM) supplemented with 10% fetal bovine serum (FBS), 1% sodium pyruvate, 1% MEM nonessential amino acids (NEAA) without antibiotics. The nontumorigenic breast cell line (MCF-10A) was cultivated in DMEM medium (Sigma-Aldrich, St. Louis, MO, USA) supplemented with 10% FBS, 1% sodium pyruvate, 1% nonessential amino acids (NEAA), 20 ng/mL human epithelia growth factor (hEGF), 10 μg/mL insulin, and 0.5 μg/mL hydrocortisone without antibiotics. All cell lines were maintained in a humidified atmosphere with 5% CO2 at 37 °C.
(§7) Using the standard MTT dye-reduction assay, described by Mosmann the antiproliferative activity was tested. The method is based on the metabolism of the tetrazolium salt MTT to insoluble formazan. The formazan absorption was registered using a microplate reader at λ = 540 nm. The measured absorption is an indicator of cell viability and metabolic activity. Antiproliferative activities were expressed as IC50 values (concentrations required for 50% inhibition of cell growth), calculated using nonlinear regression analysis (GraphPad Software, San Diego, CA, USA).

MCF-7 cell line = assay: MTT antiproliferative assay, MCF-7; assay type: cell-based, human; conditions: for IC50: Homo sapiens, MCF7, MCF-7, 72 h, MTT
Experimental: as §5
The MCF-7 cell line was treated with compounds 2, 3 and 4 at concentrations from 0.5 to 100 µg/mL, and all others from 4 to 1000 µg/mL. The antiproliferative activity expressed in % relative to the negative control (untreated cells accepted as a 100% viable or 0% antiproliferative activity) was determined and shown on Figure 6.
as §6, §7

MDA-MB-231 cell line = assay: MTT antiproliferative assay, MDA-MB-231; assay type: cell-based, human; conditions: for IC50: Homo sapiens, MDA-MB-231, 72 h, MTT; for Selective Index MDA-MB-231: SI = IC50 of MCF-10A/IC50 of MDA-MB-231
Experimental: as §5, §6, §7

KDR = tested on: KDR; parameters: method as in doi:10.1016/j.medidd.2019.100009; conditions: Figure 1; cited from earlier work
EGFR = tested on: EGFR; parameters: method as in PMID 31051400; conditions: cited from earlier work
Tie-2 = tested on: Tie-2; parameters: method as in PMID 19854647; conditions: Figure 1; read-out: Tie-2 cells IC50; cited from earlier work
FGFR1 = conditions: Figure 1; cited from earlier work
Aurora B kinase = biological target: Aurora B kinase; parameters: method as in PMID 21778056; conditions: Figure 1; read-out: Aur B IC50; cited from earlier work
MCF-7 = conditions: results published earlier, read-out: IC50 (MCF-7) of lead compounds A and B; cited from earlier work
MDA-MB-231 = conditions: results published earlier, read-out: IC50 (MDA-MB-231) of lead compounds A and B; cited from earlier work
[3] = read-out: IC50 ± SD Antiproliferative Activity MCF-10A
[4] = read-out: IC50 ± SD Antiproliferative Activity MCF-7
[5] = read-out: IC50 ± SD Antiproliferative Activity MDA-MB-231

- IC50 (MCF-7 cell line; read-out: IC50 Antiproliferative Activity MCF-7 in µM (converted)): 13 µM
- IC50 (MCF-7 cell line; [4]): 4.3 ± 0.11 µg/mL
- IC50 (MDA-MB-231 cell line; read-out: IC50 Antiproliferative Activity MDA-MB-231 in µM (converted)): 56 µM
- IC50 (MDA-MB-231 cell line; [5]): 18.3 ± 1.58 µg/mL
- melting point: 159 to 161 °C
SMILES: CCOC(=O)c1sc2nc(Cc3ccccc3)nc(N)c2c1C [Compound 2, Ethyl 4-Amino-2-benzyl-5-methyl-thieno[2,3-d]pyrimidine-6-carboxylate]
- CC50 at 24 h [1]: 1210 ± 103 µg/mL (≈ 3.7 mM)
- CC50 at 24 h [2]: 632 ± 35.6 µg/mL (≈ 1.93 mM)
- PIF (Photoirritancy factor) (BALB 3T3 cells): 1.9
- IC50 (MCF-10A cell line; read-out: IC50 Antiproliferative Activity MCF-10A (converted)): 210 µM
- IC50 (MCF-10A cell line; [3]): 67.8 ± 9.1 µg/mL
- Selective Index MDA-MB-231 (MDA-MB-231 cell line): 3.7

SMILES: Cc1cccc(NC(=O)Nc2ccc(-c3csc4ncnc(N)c34)cc2)c1 [IV]
- IC50 (KDR): 0.003 µM

SMILES: C=CC(=O)N1CCc2c(sc3ncnc(NC(CO)c4ccccc4)c23)C1 (centres unmarked) [IX]
- IC50 (EGFR; Figure 1): 0.008 µM

SMILES: Cn1cnc(-c2cccc(NC(=O)Nc3cc(C(F)(F)F)ccc3F)c2)c1-c1cc2c(N)ncnc2s1 [I]
- IC50 (Tie-2): 0.07 µM

SMILES: Oc1cccc(Nc2ncnc3sc(-c4ccccc4)cc23)c1 [VII]
- IC50 (FGFR1): 0.16 µM

SMILES: Fc1ccccc1Nc1ncnc2sc3c(c12)CCCC3 [X]
- EGFR/HER2 inhibitory activity IC50 (in words) (EGFR): in the nanomolar range

- IC50 (MCF-7 cell line; [4]): > 1000 µg/mL
- IC50 (MDA-MB-231 cell line; [5]): > 1000 µg/mL
- melting point: 262 to 264 °C
SMILES: CCOC(=O)c1sc2nc(-c3ccccn3)nc(N)c2c1C [Compound 7, Ethyl 4-Amino-5-methyl-2-(pyridin—2-yl) Thieno[2,3-d]pyrimidine-6-carboxylate]
- CC50 at 24 h [1]: 2750 ± 64.3 µg/mL (≈ 8.76 mM)
- IC50 at 24 h ([1]; BALB 3T3, converted from µg/mL, read-out: IC50 cytotoxicity against BALB 3T3): 8800 µM
- CC50 at 24 h [2]: 2550 ± 75.1 µg/mL (≈ 8.12 mM)
- PIF (Photoirritancy factor) (BALB 3T3 cells): 1.08
- IC50 (MCF-10A cell line; [3]): > 1000 µg/mL

SMILES: N.N.[Cl][Pt][Cl] [Cisplatin, reference compound]
- Selective Index MCF-7 (MCF-7 cell line; SI = IC50 of MCF-10A/IC50 of MCF-7): 2.36
- Selective Index MDA-MB-231 (MDA-MB-231 cell line): 25

SMILES: Cc1ccccc1NC(=O)NCc1cccc(NC(=O)c2csc3ncnc(N)c23)c1 [III]
- IC50 (Aurora B kinase): 0.0038 µM

SMILES: CCOC(=O)c1sc2nc(CCn3c(=N)[nH]c4ccccc43)[nH]c(=O)c2c1C [B]
- IC50 (MCF-7): 0.21 µM
- IC50 (MDA-MB-231): 0.32 µM
